The values that follow come from US11690377B2, “Herbicidal composition and method of use thereof” (Belchim Crop Protection NV, priority 2017, dated 2023).

Holding throughout (assay type): in vivo
The subject of assay [1] is ELEIN - Goosegrass (Eleusine indica). Description: Field trial, pre-emergence weed control in corn, ELEIN. The following applies: mesotrione 3.85 oz/A, pyridate 6.84 oz/A, combination 3.85 + 6.84 oz/A. The procedure:
(§1) Field trials were conducted in Tennessee and Illinois (USA). The crop and weed species had been seeded and/or drill sown. In the case of post-emergence evaluation, seeded and/or drill sown plants were grown to a certain growth stage before application of the active ingredients (alone or as a mixture). In the case of pre-emergence evaluation, the application of the active ingredients was carried out after the plants were seeded and/or drilled sown. The trial was in the form of a randomized complete block. The percentage of weed control was assessed in several different instances after treatment until a maximum of 42 days after treatment, by comparison with untreated control plots by visual scoring. The herbicidal action was assessed qualitatively and quantitatively. To quantify the synergic effect resulting from the combination of mesotrione and pyridate, the inventors used the methodology described by Colby, in which a synergistic effect exists when the activity of a composition comprising both active compounds is greater than the sum of the activities of the two active compounds applied individually. The expected activity for the combination of mesotrione and pyridate can be calculated by the following so-called “Colby equation” (see S. R. Colby, “Calculating Synergistic and Antagonistic Responses of Herbicide Combinations”, Weeds 1967, 15, 20-22). Pa+b=(Pa+Pb)−(Pa*Pb/100) Wherein • Pa+b is the expected percent inhibition of weed growth by the combination of mesotrione and pyridate; • Pa is the percent inhibition of weed growth induced by mesotrione; • Pb is the percent inhibition of weed growth induced by pyridate. If the actual percent inhibition of weed growth induced by the combination of mesotrione and pyridate is greater than the expected percent inhibition (Pa+b) calculated from the Colby equation, then the activity of the combination is synergistic. The below Tables represent the herbicidal performance of the composition according to the invention, and also the herbicidal performance of the active ingredients alone, in controlling specific weeds. The expected percent inhibition of weed growth (derived from the Colby's equation) and the actual (observed) percent inhibition of weed growth is also presented in order to conclude on the synergistic effect of the combination according to the invention. Pre-Emergence Herbicidal Performance of the Composition According to the Invention Against Broadleaf Weed in Corn.

Assay [2] deals with SETVI - Green foxtail (Setaria viridis). Description: Field trial, post-emergence weed control in corn, SETVI. The protocol:
Field trials were conducted in Tennessee and Illinois (USA). The crop and weed species had been seeded and/or drill sown. In the case of post-emergence evaluation, seeded and/or drill sown plants were grown to a certain growth stage before application of the active ingredients (alone or as a mixture). In the case of pre-emergence evaluation, the application of the active ingredients was carried out after the plants were seeded and/or drilled sown. The trial was in the form of a randomized complete block. The percentage of weed control was assessed in several different instances after treatment until a maximum of 42 days after treatment, by comparison with untreated control plots by visual scoring. The herbicidal action was assessed qualitatively and quantitatively. To quantify the synergic effect resulting from the combination of mesotrione and pyridate, the inventors used the methodology described by Colby, in which a synergistic effect exists when the activity of a composition comprising both active compounds is greater than the sum of the activities of the two active compounds applied individually. The expected activity for the combination of mesotrione and pyridate can be calculated by the following so-called “Colby equation” (see S. R. Colby, “Calculating Synergistic and Antagonistic Responses of Herbicide Combinations”, Weeds 1967, 15, 20-22). Pa+b=(Pa+Pb)−(Pa*Pb/100) Wherein • Pa+b is the expected percent inhibition of weed growth by the combination of mesotrione and pyridate; • Pa is the percent inhibition of weed growth induced by mesotrione; • Pb is the percent inhibition of weed growth induced by pyridate. If the actual percent inhibition of weed growth induced by the combination of mesotrione and pyridate is greater than the expected percent inhibition (Pa+b) calculated from the Colby equation, then the activity of the combination is synergistic. The below Tables represent the herbicidal performance of the composition according to the invention, and also the herbicidal performance of the active ingredients alone, in controlling specific weeds. The expected percent inhibition of weed growth (derived from the Colby's equation) and the actual (observed) percent inhibition of weed growth is also presented in order to conclude on the synergistic effect of the combination according to the invention. […]

Assay [3] has as its system IPOHE - Ivyleaf Morningglory (Ipomoea headrace). Description: Field trial, pre-emergence weed control in corn, IPOHE. The following applies: mesotrione 3.85, pyridate 6.84, combination 3.85 + 6.84 (rate unit not given). The protocol:
as §1

[4] abbreviates: 14 days after treatment, mesotrione 2 oz/A, pyridate 2 oz/A, combination 2 + 2 oz/A.
Where [5] appears, read: 14 days after treatment, mesotrione 3 oz/A, pyridate 3 oz/A, combination 3 + 3 oz/A.
Where [6] appears, read: 21 days after treatment, mesotrione 2 oz/A, pyridate 2 oz/A, combination 2 + 2 oz/A.
[7] abbreviates: 21 days after treatment, mesotrione 3 oz/A, pyridate 3 oz/A, combination 3 + 3 oz/A.
[8] abbreviates: 38 days after treatment, mesotrione 2 oz/A, pyridate 2 oz/A, combination 2 + 2 oz/A.
Where [9] appears, read: 38 days after treatment, mesotrione 3 oz/A, pyridate 3 oz/A, combination 3 + 3 oz/A.

Regarding `CCCCCCCCSC(=O)Oc1cc(Cl)nnc1-c1ccccc1` [pyridate, Pyridate], the “Mean percentage of weed control (observed)” value (from here on “Mean percentage”) in assay [1] (7 days after treatment) was found to be 37%; in assay [1] (14 days after treatment), 37%; in assay [2] (setting [4]), 10%; in assay [2] (setting [5]), 10%; in assay [2] (setting [6]) it was 10%; in assay [2] (setting [7]), 10%. The “Mean percentage” value is 10% in assay [2] (setting [8]); 10% in assay [2] (setting [9]); 37% in assay [3] (7 days after treatment); 42% in assay [3] (14 days after treatment); 20% in assay [3] (28 days after treatment); 20% in assay [3] (42 days after treatment).

With `CS(=O)(=O)c1ccc(C(=O)C2C(=O)CCCC2=O)c([N+](=O)[O-])c1` [mesotrione, Mesotrione], the “Mean percentage” value is given as 65% in assay [1] (7 days after treatment); 78% in assay [1] (14 days after treatment); 48% in assay [2] (setting [4]); 58% in assay [2] (setting [5]); 50% in assay [2] (setting [6]); 60% in assay [2] (setting [7]). The “Mean percentage” value in assay [2] (setting [8]) was 50%; in assay [2] (setting [9]) it was 60%; in assay [3] (7 days after treatment), 62%; in assay [3] (14 days after treatment) it was 64%; in assay [3] (28 days after treatment), 40%; in assay [3] (42 days after treatment), 34%.
